What was measured:
[1] = system: adrenal suppression; design: method as in PMID 23498916, PMID 24014378, PMID 27133900; details: in vitro assays in multiple cell types; cited from earlier work
[2] = system: blood glucose (insulin resistance biomarker); experiment: Blood glucose / fasting insulin, MAD; type: in vivo, human; details: for Blood glucose: mean±SEM
Experimental: All biomarkers were analyzed using standard immunoassays by PRA.
Glucocorticoids were originally named as such due to their potent and acute effects on glucose metabolism, where liver and muscle pathways for insulin signaling are rapidly and profoundly affected, creating a state of insulin resistance. […] Fasting insulin and glucose levels were assessed in all dose groups in the vamorolone Phase 1 SAD and MAD.

[3] = Clinical safety (treatment-emergent adverse events), SAD; type: in vivo, human
Experimental: In the SAD part of the study, 7 cohorts were to be enrolled. Eight subjects were assigned to each of Cohorts 1 to 5 and 7 and received a single oral dose of vamorolone (planned as 0.1 mg/kg, 0.3 mg/kg, 1.0 mg/kg, 3.0 mg/kg, 8.0 mg/kg, and 20.0 mg/kg, respectively) or placebo under fasted conditions. Six subjects were assigned to Cohort 6 and were administered a single oral dose of 8.0 mg/kg vamorolone within 30 min of beginning a high fat/high calorie meal.
Subjects in Cohorts 1 through 5 and 7 were randomized to receive vamorolone or placebo in a 3:1 ratio (6 subjects received vamorolone, and 2 subjects received placebo) sequentially. In Cohort 1, 3 sentinel subjects were administered vamorolone or placebo in a 2:1 ratio. Following a review of sentinel safety and tolerability data (including reported adverse events [AEs], clinical laboratory tests, vital signs, and electrocardiograms [ECGs]), the remaining 5 subjects were randomized to receive vamorolone or placebo in a 4:1 ratio and dosed no earlier than 48 h after sentinel dosing. In Cohorts 2 to 5, and 7, subjects were administered vamorolone or placebo in a 3:1 ratio. Once Cohort 5 was completed and safety data had been reviewed, subjects in Cohort 6 were administered a single oral dose of 8.0 mg/kg vamorolone within 30 min of beginning a standard high fat/high calorie meal.
After completion of all scheduled safety follow-up visits for a given cohort, a Safety Review Committee (SRC), comprised of the Principal Investigator (PI), the Sponsor’s Medical Monitor, and the Sponsor’s pharmacokineticist, reviewed all available PK and safety data (AEs, physical examination findings, ECGs, vital signs, and clinical laboratory tests) in a blinded manner for the completed cohort prior to making a decision to escalate to the next higher dose level.
In the SAD part, overall, six subjects (11%) administered vamorolone experienced a total of 10 treatment-emergent adverse events (TEAEs); no subject in the placebo group experienced any TEAEs. There was no dose-related trend in the incidence or severity of TEAEs; the dose group with the highest number of subjects reporting TEAEs was the 0.1 mg/kg dose group (2 subjects, 33%), and the highest number of TEAEs (3 events) was reported by 1 subject in the 1.0 mg/kg vamorolone dose group. In the 0.3 and 3.0 mg/kg vamorolone fasted and the 8.0 mg/kg fed dose groups, 1 subject per group (17%) experienced TEAEs, and no subjects in the 8.0 mg/kg and 20 mg/kg, fasted, dose groups experienced any TEAEs. The most common TEAEs were dizziness and headache, each reported by 2 subjects overall (4%); all other TEAEs were reported by only 1 subject (2%) and included ear pain, nausea, non-cardiac chest pain, and blood bilirubin increased. Three subjects (6%) had TEAEs that were considered possibly related to treatment. Possibly related TEAEs included nausea (1 subject, 2%), dizziness (2 subjects, 4%), and headache (2 subjects, 4%). […] All other TEAEs were mild in severity.

C[C@@H]1C[C@H]2[C@@H]3CCC4=CC(=O)C=C[C@]4(C)C3=CC[C@]2(C)[C@@]1(O)C(=O)CO [vamorolone]
adrenal suppressive activity relative to traditional glucocorticoids [1]: ~ 1% | Blood glucose ([2]; MAD 1.0 mg/kg, Day 1 (predose), baseline): 86 ± 1 md/dL | Blood glucose ([2]; MAD 1.0 mg/kg, Day 2 predose): 87 ± 2 md/dL | Blood glucose ([2]; MAD 1.0 mg/kg, Day 3 predose): 86 ± 2 md/dL | Blood glucose ([2]; MAD 1.0 mg/kg, Day 7 predose): 84 ± 2 md/dL | Blood glucose ([2]; MAD 1.0 mg/kg, Day 12 predose): 83 ± 1 md/dL | Blood glucose ([2]; MAD 1.0 mg/kg, Day 14 (predose)): 84 ± 1 md/dL | Blood glucose ([2]; MAD 1.0 mg/kg, Day 17 (3 days after last dose)): 86 ± 1 md/dL | Blood glucose ([2]; MAD 1.0 mg/kg, Day 21 follow-up): 90 ± 3 md/dL | Blood glucose ([2]; MAD 1.0 mg/kg, Day -1, baseline): 90 ± 2 md/dL | Blood glucose ([2]; MAD 1.0 mg/kg, Screening, baseline): 92 ± 1 md/dL | Blood glucose ([2]; MAD 3.0 mg/kg, Day 1 (predose), baseline): 87 ± 1 md/dL | Blood glucose ([2]; MAD 3.0 mg/kg, Day 2 predose): 87 ± 1 md/dL | Blood glucose ([2]; MAD 3.0 mg/kg, Day 3 predose): 84 ± 2 md/dL | Blood glucose ([2]; MAD 3.0 mg/kg, Day 7 predose): 82 ± 1 md/dL | Blood glucose ([2]; MAD 3.0 mg/kg, Day 12 predose): 83.1 ± 1.4 md/dL | Blood glucose ([2]; MAD 3.0 mg/kg, Day 14 (predose)): 81 ± 2 md/dL | Blood glucose ([2]; MAD 3.0 mg/kg, Day 17 (3 days after last dose)): 84 ± 1 md/dL | Blood glucose ([2]; MAD 3.0 mg/kg, Day 21 follow-up): 91 ± 2 md/dL | Blood glucose ([2]; MAD 3.0 mg/kg, Day -1, baseline): 90 ± 1 md/dL | Blood glucose ([2]; MAD 3.0 mg/kg, Screening, baseline): 90.1 ± 1.5 md/dL | Blood glucose ([2]; MAD 9.0 mg/kg, Day 1 (predose), baseline): 89 ± 2 md/dL | Blood glucose ([2]; MAD 9.0 mg/kg, Day 2 predose): 87 ± 1 md/dL | Blood glucose ([2]; MAD 9.0 mg/kg, Day 3 predose): 88 ± 2 md/dL | Blood glucose ([2]; MAD 9.0 mg/kg, Day 7 predose): 87 ± 2 md/dL | Blood glucose ([2]; MAD 9.0 mg/kg, Day 12 predose): 84 ± 2 md/dL | Blood glucose ([2]; MAD 9.0 mg/kg, Day 14 (predose)): 84 ± 2 md/dL | Blood glucose ([2]; MAD 9.0 mg/kg, Day 17 (3 days after last dose)): 85 ± 2 md/dL | Blood glucose ([2]; MAD 9.0 mg/kg, Day 21 follow-up): 88 ± 2 md/dL | Blood glucose ([2]; MAD 9.0 mg/kg, Day -1, baseline): 89 ± 1 md/dL | Blood glucose ([2]; MAD 9.0 mg/kg, Screening, baseline): 89 ± 3 md/dL | Blood glucose ([2]; MAD 20.0 mg/kg, Day 1 (predose), baseline): 87 ± 1 md/dL | Blood glucose ([2]; MAD 20.0 mg/kg, Day 2 predose): 84 ± 1 md/dL | Blood glucose ([2]; MAD 20.0 mg/kg, Day 3 predose): 83 ± 1 md/dL | Blood glucose ([2]; MAD 20.0 mg/kg, Day 7 predose): 82 ± 1 md/dL | Blood glucose ([2]; MAD 20.0 mg/kg, Day 12 predose): 80 ± 2 md/dL | Blood glucose ([2]; MAD 20.0 mg/kg, Day 14 (predose)): 80 ± 2 md/dL | Blood glucose ([2]; MAD 20.0 mg/kg, Day 17 (3 days after last dose)): 81 ± 2 md/dL | Blood glucose ([2]; MAD 20.0 mg/kg, Day 21 follow-up): 91 ± 3 md/dL | Blood glucose ([2]; MAD 20.0 mg/kg, Day -1, baseline): 89 ± 1 md/dL | Blood glucose ([2]; MAD 20.0 mg/kg, Screening, baseline): 90 ± 3 md/dL | fasting insulin and glucose levels vs placebo ([2]; all dose groups SAD and MAD, any time point): did not differ from placebo | subjects reporting TEAEs ([3]; SAD 0.1 mg/kg (2 subjects)): 33% | subjects experiencing TEAEs ([3]; SAD 0.3 mg/kg fasted (1 subject)): 17% | number of TEAEs ([3]; SAD 1.0 mg/kg, reported by 1 subject): 3 events | subjects experiencing TEAEs ([3]; SAD 3.0 mg/kg fasted (1 subject)): 17% | subjects experiencing TEAEs ([3]; SAD 8.0 mg/kg fasted): no subjects | subjects experiencing TEAEs ([3]; SAD 8.0 mg/kg fed (1 subject)): 17% | subjects experiencing TEAEs ([3]; SAD 20 mg/kg fasted): no subjects | subjects experiencing TEAEs, overall ([3]; SAD, all dose groups (six subjects, 10 TEAEs)): 11%

From paper PMC6136660 (Steroids, 2018)
